# Test results: ChEMBL document CHEMBL1201862, “PubChem BioAssay data set” (2004)
#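 48-hour exposure; five concentrations; linearly interpolated endpoints. Abbreviation: GI50, concentration required for 50% inhibition of growth.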 Activity calls are given as the source filed them. No stated cut-off is given here; in the data, active = GI50 up to about 1.1 µM and inactive = higher.
# Tests used:
# Test in all cases: inhibition of tumour cell growth, NCI panel, 48 h
# [1] = system: A498
# [2] = system: CAKI-1
# [3] = system: CCRF-CEM
# [4] = system: EKVX
# [5] = system: HCT-116
# [6] = system: HOP-62
# [7] = system: HOP-92
# [8] = system: HT-29
# [9] = system: K562
# [10] = system: KM12
# [11] = system: NCI-H460
# [12] = system: RXF 393
# [13] = system: SF-295
# [14] = system: SK-MEL-5
# [15] = system: SK-OV-3
# [16] = system: SN12C
# [17] = system: SNB-75
# [18] = system: UACC-257
# [19] = system: UO-31
# [20] = system: M14
Structure (SMILES),GI50 [1],GI50 [2],GI50 [3],GI50 [4],GI50 [5],GI50 [6],GI50 [7],GI50 [8],GI50 [9],GI50 [10],GI50 [11],GI50 [12],GI50 [13],GI50 [14],GI50 [15],GI50 [16],GI50 [17],GI50 [18],GI50 [19],GI50 [20]
S=C(NCCCCCCNC(=S)Nc1c2ccccc2nc2ccccc12)Nc1c2ccccc2nc2ccccc12,> 91.8 µM (inactive),> 100 µM (inactive),63 µM (inactive),> 100 µM (inactive),50.6 µM (inactive),> 89.3 µM (inactive),52.4 µM (inactive),54.5 µM (inactive),51.9 µM (inactive),10.9 µM (inactive),43.1 µM (inactive),> 100 µM (inactive),68.4 µM (inactive),> 93.1 µM (inactive),> 100 µM (inactive),> 83.8 µM (inactive),32.9 µM (inactive),> 90.8 µM (inactive),> 86.3 µM (inactive),
O=C1OCc2cccc3c2-c2c1cccc2C(=O)OC3,,> 100 µM (inactive),,> 100 µM (inactive),> 100 µM (inactive),> 100 µM (inactive),38.5 µM (inactive),> 100 µM (inactive),> 100 µM (inactive),> 100 µM (inactive),,> 100 µM (inactive),> 100 µM (inactive),> 100 µM (inactive),> 100 µM (inactive),,,,> 100 µM (inactive),> 100 µM (inactive)
CCC(/C=C/c1ccccc1)=N\Nc1ccc(Cl)c(Cl)c1,,34.9 µM (inactive),62.4 µM (inactive),30.3 µM (inactive),23.7 µM (inactive),41.9 µM (inactive),13.6 µM (inactive),35.8 µM (inactive),32.9 µM (inactive),29.3 µM (inactive),33.3 µM (inactive),26.7 µM (inactive),34.7 µM (inactive),13.8 µM (inactive),27.4 µM (inactive),24.4 µM (inactive),41.3 µM (inactive),31.6 µM (inactive),21.4 µM (inactive),56.4 µM (inactive)
CC(C)N/C(N)=N/C#N,> 100 µM (inactive),> 100 µM (inactive),> 100 µM (inactive),> 100 µM (inactive),> 100 µM (inactive),> 100 µM (inactive),,> 100 µM (inactive),> 100 µM (inactive),> 100 µM (inactive),> 100 µM (inactive),,> 100 µM (inactive),,> 100 µM (inactive),> 100 µM (inactive),> 100 µM (inactive),> 100 µM (inactive),> 100 µM (inactive),> 100 µM (inactive)
COC(=O)N1CC2C3C4CC(C(c5ccccc5)=C4c4ccccc4)C3C21 (stereo not drawn),,12.6 µM (inactive),14.9 µM (inactive),13.2 µM (inactive),11.9 µM (inactive),19.3 µM (inactive),11.7 µM (inactive),17.1 µM (inactive),6.04 µM (inactive),14.6 µM (inactive),14.5 µM (inactive),17.7 µM (inactive),13.4 µM (inactive),11.5 µM (inactive),20 µM (inactive),17.6 µM (inactive),21.8 µM (inactive),13.7 µM (inactive),12.8 µM (inactive),26.8 µM (inactive)
CCOC(=O)C[n+]1ccc2c([nH]c3cc(OC)ccc32)c1C,> 81.5 µM (inactive),> 100 µM (inactive),> 96.2 µM (inactive),> 100 µM (inactive),61 µM (inactive),> 78.3 µM (inactive),> 70.3 µM (inactive),> 100 µM (inactive),> 100 µM (inactive),> 100 µM (inactive),> 88.1 µM (inactive),> 100 µM (inactive),69.2 µM (inactive),> 77.8 µM (inactive),> 100 µM (inactive),> 81.5 µM (inactive),> 100 µM (inactive),> 100 µM (inactive),> 39.4 µM (inactive),
CO/N=C(\C)c1ccc(Nc2nc3ccccc3c3occc23)cc1,16 µM (inactive),16.4 µM (inactive),16 µM (inactive),14 µM (inactive),14.3 µM (inactive),16 µM (inactive),13.8 µM (inactive),3.03 µM (inactive),20.2 µM (inactive),17.6 µM (inactive),15.6 µM (inactive),,16.7 µM (inactive),15.8 µM (inactive),15.9 µM (inactive),15.2 µM (inactive),,17.3 µM (inactive),18.9 µM (inactive),16.3 µM (inactive)
O=c1oc2cc(O)ccc2c2oc3cc(O)ccc3c12 [COUMESTROL],0.248 µM (active),49.9 µM (inactive),8.81 µM (inactive),77.4 µM (inactive),32.7 µM (inactive),16 µM (inactive),> 118 µM (inactive),49 µM (inactive),74 µM (inactive),111 µM (inactive),38.6 µM (inactive),54.1 µM (inactive),76 µM (inactive),9.91 µM (inactive),42.1 µM (inactive),13.2 µM (inactive),94.8 µM (inactive),87.9 µM (inactive),48.3 µM (inactive),
BrC1=CN2C[n+]3cc(Br)c4ccccc4c3N=C2c2ccccc21,24.9 µM (inactive),14 µM (inactive),10.7 µM (inactive),,,1.4 µM (inactive),10.5 µM (inactive),11.8 µM (inactive),6.34 µM (inactive),3.65 µM (inactive),13.8 µM (inactive),,8.59 µM (inactive),3.34 µM (inactive),22 µM (inactive),19.7 µM (inactive),2.92 µM (inactive),22 µM (inactive),34.9 µM (inactive),5.92 µM (inactive)
O=[N+]([O-])c1cnccc1-n1nnc2ccccc21,28.3 µM (inactive),,19.8 µM (inactive),22 µM (inactive),24.4 µM (inactive),25.1 µM (inactive),18.8 µM (inactive),28.3 µM (inactive),20.7 µM (inactive),17.2 µM (inactive),21.5 µM (inactive),17.3 µM (inactive),20.2 µM (inactive),13.9 µM (inactive),23.3 µM (inactive),16 µM (inactive),15.2 µM (inactive),14.7 µM (inactive),19.4 µM (inactive),
CSCSCC(N)CO.Cc1[nH]c(=O)[nH]c(=O)c1/C=C/C(=O)O,> 625 µM (inactive),624 µM (inactive),> 625 µM (inactive),> 625 µM (inactive),> 625 µM (inactive),> 625 µM (inactive),583 µM (inactive),> 625 µM (inactive),> 625 µM (inactive),> 625 µM (inactive),> 625 µM (inactive),> 625 µM (inactive),582 µM (inactive),> 625 µM (inactive),> 625 µM (inactive),> 625 µM (inactive),447 µM (inactive),> 625 µM (inactive),> 625 µM (inactive),
